# Results published in patent US10709724B2, “Methods of treating mitochondrial dysfunction” (Ecole Polytechnique Federale de Lausanne (EPFL), priority 2011, dated 2020).
# Experiments:
# SIRT3 [1] = assay: NR in SIRT3−/− mouse embryonic fibroblasts; format: cell-based; details: 0.5 mM, 24 hrs
# Description: Cell Culture, Transfection, Adenoviral Infection and Mitochondrial Characterization. HEK293T, MEF and C2C12 cells were cultured in DMEM (4.5 g/l glucose, 10% FCS). PARP-1^+/+ and PARP-1^−/− MEFs were prepared as described in (Menissier-de Murcia et al., 1997). SIRT1 and MEFs were kindly provided by Fred Alt (Chea et al., 2005). SIRT3 MER were established according to standard techniques from conditional SERT3^−/− mice. […] Mitochondrial charge determination was performed as described (Bai et al., 2001) and DNA strand breaks were quantified by TUNEL assays according to the manufacturer's instructions (Millipore).
# Immunoprecipitation, SDS-PAGE, Western Blotting. […] Reactions were developed by enhanced chemiluminescence (Amersham, Little Chalfont, UK), PGC-1α, FOXO1 and Ndufa9 acetylation levels were analyzed by immunoprecipitation from cellular or nuclear lysates of tissues with anti-PGC-1α (Millipore), anti-FOXO1 (Cell Signaling, Danvers, Mass., USA) and anti-Ndufa9 (Abcam) antibody followed by Western blot using an acetyl-lysine antibody (Cell Signaling) that was normalized to total PGC-1a/FOXO1/Ndufa9 levels (Lagouge et al., 2006; Rodgers et al., 2005). […] All blots were quantified by densitometry using ImageJ software. […]
# SIRT3 [2] = assay: SIRT3 activity (Ndufa9, SOD2 acetylation) in NR-treated HEK293T cells; format: cell-based, human; details: 0.5 mM, 24 hrs
# Description: Immunoprecipitation, SDS-PAGE, Western Blotting. Cells were lysed in lysis buffer (50 mM Tris, […], EDTA 1 mM, NP40 1%, nicotinamide 5 mM, Na-butyrate 1 in M, protease inhibitors pH7.4). Proteins were separated by SDS-PAGE and transferred onto nitrocellulose membranes. The origin of the primary and secondary antibodies used can be found as supplemental experimental procedures. Reactions were developed by enhanced chemiluminescence (Amersham, Little Chalfont, UK), PGC-1α, FOXO1 and Ndufa9 acetylation levels were analyzed by immunoprecipitation from cellular or nuclear lysates of tissues with anti-PGC-1α (Millipore), anti-FOXO1 (Cell Signaling, Danvers, Mass., USA) and anti-Ndufa9 (Abcam) antibody followed by Western blot using an acetyl-lysine antibody (Cell Signaling) that was normalized to total PGC-1a/FOXO1/Ndufa9 levels (Lagouge et al., 2006; Rodgers et al., 2005). In HEK293T cells HA-tagged PGC-1α was overexpressed and was immunoprecipitated using an anti-HA. In C2C12 myotubes, FLAG-HA tagged PGC-1α was introduced through adenoviral delivery 2 days before treatments, then IP was performed using anti-FLAG antibody and samples were processed as described. All blots were quantified by densitometry using ImageJ software. Poly(ADP-Ribose) detection was performed as previously described with slight modifications (Bai et al., PARP-1 inhibition increases mitochondrial metabolism through SIRT1 activation. Cell Metab 13, 461-468. (2011)) Briefly, PAR was detected by using a monoclonal anti-PAR antibody (Alexis, Lausanne Switzerland) by Western blotting of total protein lysates, using either […] of total worm protein lysates, […] of liver protein lysate or 200 g of muscle total protein extracts. PGC-1 acetylation was determined using PGC-1 immunoprecipitates from 2 mg of protein extracts, as described in Canto et al. (Canto et al., AMPK regulates energy expenditure by modulating NAD+ metabolism and SIRT1 activity. Nature 458, 1056 (2009)). […]
# HEK293T cells = assay: Mitochondrial NAD+ in HEK293T cells; format: cell-based, human; details: 0.5 mM, 4 hrs
# Description: NAD^+ NAM Determination. NAD^+ levels in cultured cells were determined using a commercial kit (Enzychrom™, BioAssays Systems, CA). For tissue samples NAD^+ and NAM levels were determined as described in (Sauve et al., 2005). In brief, to a weighed aliquot of frozen pulverized tissue we added as standards, ^18O-NAD^+ (typically 2.00 nmol) and ^18O-NAM (typically 2.00 nmol). 70 L of ice-cold 7% perchloric acid was then added and the sample was vortexed and sonicated three times, then centrifuged. Clear supernatant was removed and neutralized by additions of 3 M NaOH and 1 M phosphate buffer (pH=9), then centrifuged. Clear supernatant was injected onto HPLC C-18 column with 20 mM ammonium acetate eluent to separate NAD^+ and NAM from other cellular components, NAD^+ and NAM peaks (260 nm absorbance) were collected. Collections were lyophilized to dryness and subjected to MALDI-TOF analysis. For NAD^+ measurement, ratio of intensities for m/z=664 and 666 peaks, corresponding to ^16O- and ^18O-NAD^+ isotopomers, was multiplied by 2.00 nmol and then divided by tissue weight to determine NAD+ concentration in the sample. […] Other NAD metabolites were determined as previously described (Yang and Sauve, Synthesis of nictotinamide riboside and derivatives: effective agents for increasing nictinomide adenine dinucleotide concentrations in mammalian cells. J Med Chem 50, 6458-6461 (2006)).
smiles,measurement,setting,value
"NC(=O)c1ccc[n+]([C@@H]2O[C@H](CO)[C@@H](O)[C@H]2O)c1 [NR, nicotinamide riboside]",NAD+ levels in SIRT3−/− MEFs,SIRT3 [1],increased to similar levels as in SIRT3^+/+ MEFs
same,acetylation status of SOD2 in SIRT3−/− MEFs,SIRT3 [1],unable to decrease the acetylation status of SOD2
same,SOD2 activity,SIRT3 [2],enhanced SOD2 activity
same,acetylation status of Ndufa9,SIRT3 [2],reduced the acetylation status
same,acetylation status of SOD2,SIRT3 [2],reduced the acetylation status
same,mitochondrial NAD+ levels in cultured cells,HEK293T cells,mitochondrial NAD^+ levels were enhanced
